{"source": "patent US7858640B2", "about": "“Quinolines and their therapeutic use” (Pulmagen Therapeutics (Asthma) Limited, priority 2005, dated 2010)", "key": {"CRTH2 receptor [1]": {"molecular_target": "T1, CRTH2 receptor (Homo sapiens, UniProt Q9Y5Y4)", "T1 sequence (Q9Y5Y4 1-395)": "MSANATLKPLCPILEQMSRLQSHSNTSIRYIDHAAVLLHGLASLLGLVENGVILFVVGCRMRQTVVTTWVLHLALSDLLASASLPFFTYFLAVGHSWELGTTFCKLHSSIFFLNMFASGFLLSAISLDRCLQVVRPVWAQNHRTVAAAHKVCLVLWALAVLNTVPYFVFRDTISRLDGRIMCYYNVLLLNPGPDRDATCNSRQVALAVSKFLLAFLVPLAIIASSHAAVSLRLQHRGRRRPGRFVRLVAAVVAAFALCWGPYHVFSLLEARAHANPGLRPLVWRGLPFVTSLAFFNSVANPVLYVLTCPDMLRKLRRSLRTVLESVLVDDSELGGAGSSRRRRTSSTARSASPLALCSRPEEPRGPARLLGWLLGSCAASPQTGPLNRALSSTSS", "assay": "Radioligand binding assay ([3H]-PGD2 displacement, SPA)", "parameters": "expressed in transfected cells; host or cells: HEK cell membranes", "details": "HEK cell membranes expressing the CRTH2 receptor, 1 nM [3H]-PGD2; Ki from IC50 by Cheng-Prusoff", "method": "Radioligand Binding Assay\nThe receptor binding assay is performed in a final volume of 200 μL binding buffer [10 mM BES (pH 7.4), 1 mM EDTA, 10 mM manganese chloride, 0.01% BSA] and 1 nM [^3H]-PGD2 (Amersham Biosciences UK Ltd). Ligands are added in assay buffer containing a constant amount of DMSO (1% by volume). Total binding is determined using 1% by volume of DMSO in assay buffer and non-specific binding is determined using 10 μM of unlabeled PGD2 (Sigma). Human embryonic kidney (HEK) cell membranes (3.5 μg) expressing the CRTH2 receptor are incubated with 1.5 mg wheatgerm agglutinin SPA beads and 1 nM [^3H]-PGD2 (Amersham Biosciences UK Ltd) and the mixture incubated for 3 hours at room temperature. Bound [^3H]-PGD2 is detected using a Microbeta TRILUX liquid scintillation counter (Perkin Elmer). Compound IC50 value is determined using a 6-point dose response curve in duplicate with a semi-log compound dilution series. IC50 calculations are performed using Excel and XLfit (Microsoft), and this value is used to determine a Ki value for the test compound using the Cheng-Prusoff equation."}, "CRTH2 receptor [2]": {"molecular_target": "T1, CRTH2 receptor", "assay": "Functional assay: calcium mobilisation", "assay_type": "cell-based", "parameters": "expressed in transfected cells", "details": "CHO-K1 cells co-expressing CRTH2 receptor and Gα16; antagonism of PGD2 at its EC80", "method": "Functional Assay: Calcium Mobilisation\nStable CHO-K1 cells co-expressing the CRTH2 receptor and the G-protein Gα16 are seeded (40,000 cells per well in a plating volume of 75 μL in F-12 Hams supplemented with 1% foetal bovine serum) into collagen-coated 96-well, plates 24 hours prior to the assay. The cells are then loaded with a fluorescence-imaging plate reader (FLIPR) calcium kit dye (Calcium 3 kit, Molecular Devices Ltd) containing 5 mM final concentration of probenecid and incubated at 37° C. for 1 hour in a 5% CO2 atmosphere. The fluorescence emission caused by intracellular calcium mobilization elicited by the PGD2 at the CRTH2 receptor is determined with a FLEXstation benchtop scanning and integrated fluid transfer workstation (Molecular Devices Ltd). To detect antagonists and determine compound IC50, compounds are pre-incubated at varying concentrations with the loaded cells for 15 minutes at 37° C., 5% CO2, prior to the addition of the agonist at its EC80 value. Compounds and agonist are added in Hanks balanced salt solution containing 20 mM HEPES and 0.1% BSA). The fractional response values for each well are calculated by subtracting the basal response from the peak response. Results are calculated as the mean of triplicate wells using Excel and XLfit (Microsoft)."}}}
{"smiles": "Cc1nc2c(Cl)ccc(CC(=O)O)c2c(C)c1Sc1ccc(Cl)cc1", "note": "[Example 12, [8-chloro-3-(4-chlorophenylsulfanyl)-2,4-dimethylquinolin-5-yl]acetic Acid]", "values": [{"measurement": "Ki", "setting": "CRTH2 receptor [1]", "value": "< 100", "unit": "nM"}, {"measurement": "IC50", "setting": "CRTH2 receptor [2]", "value": "< 100", "unit": "nM"}]}
{"smiles": "Cc1nc2c(Cl)ccc(OCC(=O)O)c2c(OC(F)F)c1Cc1ccc(F)cc1", "note": "[Example 18, [8-chloro-4-difluoromethoxy-3-(4-fluorobenzyl)-2-methylquinolin-5-yloxy]acetic acid]", "values": [{"measurement": "Ki", "setting": "CRTH2 receptor [1]", "value": "< 100", "unit": "nM"}, {"measurement": "IC50", "setting": "CRTH2 receptor [2]", "value": "< 100", "unit": "nM"}]}
{"smiles": "Cc1nc2c(Cl)ccc(OCC(=O)O)c2c(C)c1Cc1ccc(S(C)(=O)=O)cc1", "note": "[Example 20, [8-chloro-3-(4-methanesulfonylbenzyl)-2,4-dimethylquinolin-5-yloxy]acetic Acid]", "values": [{"measurement": "Ki", "setting": "CRTH2 receptor [1]", "value": "< 100", "unit": "nM"}, {"measurement": "IC50", "setting": "CRTH2 receptor [2]", "value": "< 1000", "unit": "nM"}]}
{"smiles": "Cc1nc2c(Cl)ccc(-c3nnn[nH]3)c2c(C)c1Cc1ccc(Cl)cc1", "note": "[Example 42, 8-chloro-3-(4-chlorobenzyl)-2,4-dimethyl-5-(1H-tetrazol-5-yl)quinoline]", "values": [{"measurement": "Ki", "setting": "CRTH2 receptor [1]", "value": "< 10000", "unit": "nM"}, {"measurement": "IC50", "setting": "CRTH2 receptor [2]", "value": "< 1000", "unit": "nM"}]}
{"smiles": "CCc1nc2c(F)ccc(O[C@@H](C)C(=O)O)c2c(OC(F)F)c1Cc1ccc(C(=O)N2CCCC2)cc1Cl", "note": "[Example 73, (S)-2-{3-[2-chloro-4-(pyrrolidine-1-carbonyl)benzyl]-4-difluoromethoxy-2-ethyl-8-fluoroquinolin-5-yloxy}propionic Acid]", "values": [{"measurement": "Ki", "setting": "CRTH2 receptor [1]", "value": "< 100", "unit": "nM"}]}
{"smiles": "CCc1nc2c(F)ccc(O[C@@H](C)C(=O)O)c2c(OC(F)F)c1Cc1ccc(Cl)cc1Cl", "note": "[Example 74, (S)-2-[3-(2,4-dichlorobenzyl)-4-difluoromethoxy-2-ethyl-8-fluoroquinolin-5-yloxy]propionic Acid]", "values": [{"measurement": "Ki", "setting": "CRTH2 receptor [1]", "value": "< 100", "unit": "nM"}]}
{"smiles": "CCc1nc2c(F)ccc(O[C@@H](C)C(=O)O)c2c(OC)c1Cc1ccc(Cl)cc1Cl", "note": "[Example 75, (S)-2-[3-(2,4-dichlorobenzyl)-2-ethyl-8-fluoro-4-methoxyquinolin-5-yloxy]propionic Acid]", "values": [{"measurement": "Ki", "setting": "CRTH2 receptor [1]", "value": "< 100", "unit": "nM"}]}
{"smiles": "CCc1nc2c(F)ccc(OCC(=O)O)c2c(OC(F)F)c1Cc1ccc(C(=O)NC2CCC2)cc1Cl", "note": "[Example 76, [3-(2-chloro-4-cyclobutylcarbamoylbenzyl)-4-difluoromethoxy-2-ethyl-8-fluoroquinolin-5-yloxy]acetic Acid]", "values": [{"measurement": "Ki", "setting": "CRTH2 receptor [1]", "value": "< 100", "unit": "nM"}]}
{"smiles": "CCc1nc2c(F)ccc(O[C@@H](C)C(=O)O)c2c(OC(F)F)c1Cc1ccc(C(=O)NC2CCC2)cc1Cl", "note": "[Example 77, (S)-2-[3-(2-chloro-4-cyclobutylcarbamoylbenzyl)-4-difluoromethoxy-2-ethyl-8-fluoroquinolin-5-yloxy]propionic acid]", "values": [{"measurement": "Ki", "setting": "CRTH2 receptor [1]", "value": "< 100", "unit": "nM"}]}
{"smiles": "Cc1cc(OCC(=O)O)c2c(C)c(Cc3ccc(Cl)cc3)cnc2c1", "note": "[Example 78, [3-(4-chlorobenzyl)-4,7-dimethylquinolin-5-yloxy]acetic Acid]", "values": [{"measurement": "Ki", "setting": "CRTH2 receptor [1]", "value": "< 10000", "unit": "nM"}]}
{"smiles": "Cc1nc2cccc(OCC(=O)O)c2cc1Cc1ccc(Cl)cc1", "note": "[Example 79, [3-(4-chlorobenzyl)-2-methylquinolin-5-yloxy]acetic Acid]", "values": [{"measurement": "Ki", "setting": "CRTH2 receptor [1]", "value": "< 10000", "unit": "nM"}]}
